Experimental data: US8192962B2, “Processes for detecting toxic substances” (Daikin Industries, Ltd., priority 2001, dated 2012)

Test system: Unknown protein yeast genes
Assay: DNA chip mRNA expression in yeast, unknown protein yeast genes (Table 1)
Format: cell-based, Saccharomyces cerevisiae S288C
Experimental: Yeast (Saccharomyces cerevisiae S288C (α SUC2mal mel gap2 CUP1)) were incubated at 25° C. on YPD medium (yeast extract 1%, polypepton 2%, glucose 2%). One of toxic chemical substances was added to the cells at logarithmic growth phase, and the cells were further incubated for two hours. Cells were cultured without any chemical substance in the same condition, and were used as control. Concentrations of the chemical substances were defined to inhibit the growth of the yeast but not lead to death.
After completion of the incubation, the culture was centrifuged to collect the cells. To the cells, sodium acetate buffer (50 mM sodium acetate, 10 mM EDTA, 1% SDS) was added, and the mixture was shaken at 65° C. for five minutes, followed by returning to room temperature, and obtaining the supernatant, of which the procedures were repeated two times. To the supernatant, ½ amount of a solution of phenol/chloroform was added, and the mixture was centrifuged to give a supernatant, which was added with an equal amount of chloroform, and the mixture was centrifuged to give a supernatant. To the supernatant, an equal amount of isopropanol containing 0.3 M sodium acetate was added, and the mixture was allowed to stand at room temperature for 30 minutes, after which the mixture was centrifuged to give a sediment of the whole RNAs. Seventy % ethanol was added to the sediment, and the mixture was again centrifuged to give a sediment, which was then dried and dissolved in water. mRNA was isolated from the whole RNAs as followings. In view of the fact that a poly A chain is attached to the 3′ terminus of mRNA, a polynucleotide having a poly T structure which was immobilized on the surface of latex beads was used to trap the mRNA, and then the mRNA was washed and eluted with spine column (Oligotex-dT30<Super>mRNA Purification Kit, Takara). Reverse transcription of the mRNA was conducted with a reverse transcriptase (Super Script II Reverse Transcriptase; catalogue No. 18064-014, GibcoBRL) using fluorescence-labeled nucleotides to give cDNAs that were introduced with Cy3-dUTP or Cy5-dUTP during the reverse transcription.
The labeled cDNAs were dissolved in TE buffer (10mM Tris-HCl/1 mM EDTA, pH8.0), and the solution was dropped on the DNA chip containing the whole genes of yeast (DNA Chip Research Inc. Japan) so that the cDNAs were hybridized on the DNA chip at 65° C. for over 12 hours. The fluoresces intensity of the DNA chip was read with a scanner, and the ratio relative to the fluorescence intensity resulting from the absence of chemical substance was estimated as the following, which is shown in Tables 1 to 9: […]

For `[Cl][Cd][Cl]` [(2), CdCl2], which “The level of expressed mRNA in the presence of chemical substance/The level of expressed mRNA in the absence of chemical substance” value (yeast gene YKL195W, incubated two hours with chemical substance) is on record?
The value was 0.5.

And the “The level of expressed mRNA in the presence of chemical substance/The level of expressed mRNA in the absence of chemical substance” value (yeast gene YKR091W, incubated two hours with chemical substance)?
The value was 2.3.

What about the “The level of expressed mRNA in the presence of chemical substance/The level of expressed mRNA in the absence of chemical substance” value (yeast gene YLR054C, incubated two hours with chemical substance) of the same molecule?
Its value is 1.5.

And the “The level of expressed mRNA in the presence of chemical substance/The level of expressed mRNA in the absence of chemical substance” value (yeast gene YLR149C, incubated two hours with chemical substance)?
Its value is 1.9.

And the “The level of expressed mRNA in the presence of chemical substance/The level of expressed mRNA in the absence of chemical substance” value (yeast gene YLR152C, incubated two hours with chemical substance)?
Its value is 1.3.

What about the “The level of expressed mRNA in the presence of chemical substance/The level of expressed mRNA in the absence of chemical substance” value (yeast gene YLR194C, incubated two hours with chemical substance) of the same molecule?
Its value is 2.2.

What about the “The level of expressed mRNA in the presence of chemical substance/The level of expressed mRNA in the absence of chemical substance” value (yeast gene YLR324W, incubated two hours with chemical substance) of the same molecule?
The value was 1.2.

And the “The level of expressed mRNA in the presence of chemical substance/The level of expressed mRNA in the absence of chemical substance” value (yeast gene YLR350W, incubated two hours with chemical substance)?
Its value is 1.9.

And the “The level of expressed mRNA in the presence of chemical substance/The level of expressed mRNA in the absence of chemical substance” value (yeast gene YLR387C, incubated two hours with chemical substance)?
Its value is 1.6.

And the “The level of expressed mRNA in the presence of chemical substance/The level of expressed mRNA in the absence of chemical substance” value (yeast gene YLR460C)?
The value was 2.1.

And the “The level of expressed mRNA in the presence of chemical substance/The level of expressed mRNA in the absence of chemical substance” value (yeast gene YML117W, incubated two hours with chemical substance)?
The value was 2.2.

What about the “The level of expressed mRNA in the presence of chemical substance/The level of expressed mRNA in the absence of chemical substance” value (yeast gene YMR009W, incubated two hours with chemical substance) of the same molecule?
Its value is 1.9.

And the “The level of expressed mRNA in the presence of chemical substance/The level of expressed mRNA in the absence of chemical substance” value (yeast gene YMR067C, incubated two hours with chemical substance)?
The value was 0.9.

What about the “The level of expressed mRNA in the presence of chemical substance/The level of expressed mRNA in the absence of chemical substance” value (yeast gene YMR090W) of the same molecule?
Its value is 9.5.

And the “The level of expressed mRNA in the presence of chemical substance/The level of expressed mRNA in the absence of chemical substance” value (yeast gene YMR095C, incubated two hours with chemical substance)?
The value was 2.0.

What about the “The level of expressed mRNA in the presence of chemical substance/The level of expressed mRNA in the absence of chemical substance” value (yeast gene YMR097C, incubated two hours with chemical substance) of the same molecule?
Its value is 1.0.

What about the “The level of expressed mRNA in the presence of chemical substance/The level of expressed mRNA in the absence of chemical substance” value (yeast gene YMR102C, incubated two hours with chemical substance) of the same molecule?
Its value is 2.9.

And the “The level of expressed mRNA in the presence of chemical substance/The level of expressed mRNA in the absence of chemical substance” value (yeast gene YMR107W, incubated two hours with chemical substance)?
Its value is 3.9.

And the “The level of expressed mRNA in the presence of chemical substance/The level of expressed mRNA in the absence of chemical substance” value (yeast gene YMR180C, incubated two hours with chemical substance)?
Its value is 0.9.

And the “The level of expressed mRNA in the presence of chemical substance/The level of expressed mRNA in the absence of chemical substance” value (yeast gene YMR184W, incubated two hours with chemical substance)?
The value was 5.4.

What about the “The level of expressed mRNA in the presence of chemical substance/The level of expressed mRNA in the absence of chemical substance” value (yeast gene YMR191W, incubated two hours with chemical substance) of the same molecule?
The value was 2.4.

What about the “The level of expressed mRNA in the presence of chemical substance/The level of expressed mRNA in the absence of chemical substance” value (yeast gene YMR295C, incubated two hours with chemical substance) of the same molecule?
Its value is 1.0.

What about the “The level of expressed mRNA in the presence of chemical substance/The level of expressed mRNA in the absence of chemical substance” value (yeast gene YMR316W, incubated two hours with chemical substance) of the same molecule?
Its value is 2.9.

And the “The level of expressed mRNA in the presence of chemical substance/The level of expressed mRNA in the absence of chemical substance” value (yeast gene YNL044W, incubated two hours with chemical substance)?
The value was 0.9.

What about the “The level of expressed mRNA in the presence of chemical substance/The level of expressed mRNA in the absence of chemical substance” value (yeast gene YNL074C, incubated two hours with chemical substance) of the same molecule?
The value was 1.3.

And the “The level of expressed mRNA in the presence of chemical substance/The level of expressed mRNA in the absence of chemical substance” value (yeast gene YNL092W, incubated two hours with chemical substance)?
The value was 1.4.

And the “The level of expressed mRNA in the presence of chemical substance/The level of expressed mRNA in the absence of chemical substance” value (yeast gene YNL115C, incubated two hours with chemical substance)?
The value was 1.8.

And the “The level of expressed mRNA in the presence of chemical substance/The level of expressed mRNA in the absence of chemical substance” value (yeast gene YNL156C, incubated two hours with chemical substance)?
Its value is 1.2.

And the “The level of expressed mRNA in the presence of chemical substance/The level of expressed mRNA in the absence of chemical substance” value (yeast gene YNL234W, incubated two hours with chemical substance)?
Its value is 1.1.

What about the “The level of expressed mRNA in the presence of chemical substance/The level of expressed mRNA in the absence of chemical substance” value (yeast gene YNL281W, incubated two hours with chemical substance) of the same molecule?
The value was 1.3.

What about the “The level of expressed mRNA in the presence of chemical substance/The level of expressed mRNA in the absence of chemical substance” value (yeast gene YNL305C, incubated two hours with chemical substance) of the same molecule?
The value was 2.2.

And the “The level of expressed mRNA in the presence of chemical substance/The level of expressed mRNA in the absence of chemical substance” value (yeast gene YNR068C, incubated two hours with chemical substance)?
Its value is 1.5.

What about the “The level of expressed mRNA in the presence of chemical substance/The level of expressed mRNA in the absence of chemical substance” value (yeast gene YOL032W, incubated two hours with chemical substance) of the same molecule?
The value was 0.8.

What about the “The level of expressed mRNA in the presence of chemical substance/The level of expressed mRNA in the absence of chemical substance” value (yeast gene YOL036W, incubated two hours with chemical substance) of the same molecule?
The value was 0.9.

And the “The level of expressed mRNA in the presence of chemical substance/The level of expressed mRNA in the absence of chemical substance” value (yeast gene YOL047C, incubated two hours with chemical substance)?
The value was 1.1.

What about the “The level of expressed mRNA in the presence of chemical substance/The level of expressed mRNA in the absence of chemical substance” value (yeast gene YOL071W, incubated two hours with chemical substance) of the same molecule?
The value was 2.0.

What about the “The level of expressed mRNA in the presence of chemical substance/The level of expressed mRNA in the absence of chemical substance” value (yeast gene YOL082W, incubated two hours with chemical substance) of the same molecule?
Its value is 1.6.

And the “The level of expressed mRNA in the presence of chemical substance/The level of expressed mRNA in the absence of chemical substance” value (yeast gene YOL083W, incubated two hours with chemical substance)?
Its value is 2.3.

And the “The level of expressed mRNA in the presence of chemical substance/The level of expressed mRNA in the absence of chemical substance” value (yeast gene YOL117W, incubated two hours with chemical substance)?
The value was 1.1.

And the “The level of expressed mRNA in the presence of chemical substance/The level of expressed mRNA in the absence of chemical substance” value (yeast gene YOL131W, incubated two hours with chemical substance)?
Its value is 1.5.

What about the “The level of expressed mRNA in the presence of chemical substance/The level of expressed mRNA in the absence of chemical substance” value (yeast gene YOL150C) of the same molecule?
The value was 3.7.

And the “The level of expressed mRNA in the presence of chemical substance/The level of expressed mRNA in the absence of chemical substance” value (yeast gene YOL162W, incubated two hours with chemical substance)?
Its value is 6.9.

And the “The level of expressed mRNA in the presence of chemical substance/The level of expressed mRNA in the absence of chemical substance” value (yeast gene YOR019W, incubated two hours with chemical substance)?
Its value is 1.2.

And the “The level of expressed mRNA in the presence of chemical substance/The level of expressed mRNA in the absence of chemical substance” value (yeast gene YOR197W, incubated two hours with chemical substance)?
The value was 1.0.

What about the “The level of expressed mRNA in the presence of chemical substance/The level of expressed mRNA in the absence of chemical substance” value (yeast gene YPL087W, incubated two hours with chemical substance) of the same molecule?
The value was 5.1.

What about the “The level of expressed mRNA in the presence of chemical substance/The level of expressed mRNA in the absence of chemical substance” value (yeast gene YPL196W, incubated two hours with chemical substance) of the same molecule?
The value was 1.6.

And the “The level of expressed mRNA in the presence of chemical substance/The level of expressed mRNA in the absence of chemical substance” value (yeast gene YPL206C, incubated two hours with chemical substance)?
Its value is 2.9.

What about the “The level of expressed mRNA in the presence of chemical substance/The level of expressed mRNA in the absence of chemical substance” value (yeast gene YPL222W, incubated two hours with chemical substance) of the same molecule?
Its value is 3.5.

And the “The level of expressed mRNA in the presence of chemical substance/The level of expressed mRNA in the absence of chemical substance” value (yeast gene YPR023C, incubated two hours with chemical substance)?
Its value is 1.4.

What about the “The level of expressed mRNA in the presence of chemical substance/The level of expressed mRNA in the absence of chemical substance” value (yeast gene YPR151C, incubated two hours with chemical substance) of the same molecule?
The value was 2.0.
